Test results: patent publication US10807982B2, “Bromodomain inhibitors” (CELGENE QUANTICEL RESEARCH, INC., priority 2015, dated 2020)
Where a name gives a salt, the structure may show the parent alone.

Assays:
[1] = test system: NCI-H460, human non-small cell lung cancer cells; assay: Cell-MTS cellular proliferation assay, NCI-H460; format: cell-based; settings: Homo sapiens, 168 hr incubation
Description: (§1) A colorimetric cellular proliferation assay (Cell-MTS assay) was performed to assess the ability of the heterocyclic derivative […] inhibitors disclosed herein to effect the proliferation of established cancer cell lines.
(§2) The Cell-MTS assay is a 7-day plate-based colorimetric assay which quantifies the amount of newly generated NADH in the presence or absence of test compound. The NADH level is used for the quantification of cancer cell proliferation.
(§3) Established cancer cell lines with a variety of driving mutations were obtained from American Type Culture Collection (ATCC) and routinely passaged according to ATCC protocols. For routine assay, these cells were seeded at densities which enabled ˜90% confluence after 7 days of culture. Raji, human Burkitts lymphoma cells, (cMYC) were seeded at 15,000 cells per 96-well. HL-60, human proleukemia cells, (NRAS, p16, p53, c-Myc amplified) were seeded at 5,000 cells per 96-well. NCI-H460, human non-small cell lung cancer cells. (KRAS, PIK3CA, STLK11, p16) were seeded at 3,000 cells per 96-well. 24 hr after plating, cells received an 11 point dilution of test compound with final concentration ranges from 100 µM to 2.0 nM. Cells were incubated in the presence of compound for 168 hr at 37° C., and 5% CO2. At the end of this incubation period, 80 µL of media is removed and 20 µL of CellTiter 96® AQueous Non-Radioactive Cell Proliferation Assay solution (Promega) was added. The cells were incubated until the OD490 was >0.6. IC50 values were calculated using the IDBS XLfit software package and include background subtracted OD490 values and normalization to DMSO controls. Cellular proliferation IC50 values were uploaded and archived using the Chem Biography Platform. Table 3 provides the results of the in vitro enzyme inhibition assay experiments and the in vitro cell-based assay experiments performed with the compounds disclosed herein: […]

[2] = test system: HL-60, human proleukemia cells; assay: Cell-MTS cellular proliferation assay, HL-60; format: cell-based; settings: Homo sapiens, HL-60 cells, 168 hr incubation
Description: as §1, §2, §3

BRD4(BD1) = BRD4(BD1) (Homo sapiens (Human), UniProt O60885); assay: In vitro enzyme inhibition assay (BRD4 AlphaScreen, H4-tetraacetyl peptide); format: binding; settings: BRD4(BD1) 2 nM, peptide 15 nM
Description: Determination of the IC50 for the heterocyclic derivative BRD4 inhibitors disclosed herein was performed as follows. His-tagged […] was cloned, expressed and purified to homogeneity. Filipakopoulos et al., 468 Nature 1067 (2010). BRD4 binding and inhibition was assessed by monitoring the interaction of biotinylated H4-tetraacetyl peptide (AnaSpec, H4K5/8/12/16(Ac), biotin—labeled) with the target using the AlphaScreen technology (Life Technologies). In a 384-well ProxiPlate BRD4(BD1) (2 nM final) was combined with peptide (15 nM final) in 50 mM HEPES (pH 7.3), 10 mM NaCl, 0.25 mM TCEP, 0.1% (w/v) BSA, and 0.005% (w/v) Brij-35 either in the presence of DMSO (final 0.4% DMSO) or compound dilution series in DMSO. After 20 min incubation at RT, Alpha streptavidin donor beads and Nickel Chelate acceptor beads were added to a final concentration of 5 μg/mL. After 2 hr of equilibration, plates were read on an Envision instrument and the IC50 was calculated using a four parameter non-linear curve fit.
The ability of the compounds disclosed herein to inhibit BRD4 activity was quantified and the respective IC50 value was determined.

[3] = test system: Raji, human Burkitts lymphoma cells; assay: Cell-MTS cellular proliferation assay, Raji; format: cell-based; settings: Homo sapiens, 168 hr incubation
Description: as §1, §2, §3

Row | IC50 [1] [nM] | IC50 [2] [nM] | IC50 (BRD4(BD1)) [nM] | IC50 [3] [nM] | SMILES
1 | > 5000 | ≤ 500 | ≤ 500 | ≤ 500 | COC[C@@H](C)n1c(C)nc2c(NS(C)(=O)=O)cc(-c3cc(C)c(=O)n(C)c3)cc21 [Example 46, N-[6-(1,5-dimethyl-6-oxopyridin-3-yl)-1-[(2R)-1-methoxypropan-2-yl]-2-methylbenzimidazol-4-yl]methanesulfonamide]
2 | 500 to 5000 | ≤ 500 | ≤ 500 | ≤ 500 | COc1nc2c(NS(C)(=O)=O)cc(-c3cc(C)c(=O)n(C)c3)cc2n1CC1CC1 [Example 73, N-[1-(cyclopropylmethyl)-6-(1,5-dimethyl-6-oxopyridin-3-yl)-2-methoxybenzimidazol-4-yl]methanesulfonamide]
3 | > 5000 | ≤ 500 | ≤ 500 | 500 to 5000 | Cc1cc(-c2cc3c(cc2OCC2CC2)CN(C)S3(=O)=O)cn(C)c1=O [Example 5, 5-[5-(cyclopropylmethoxy)-2-methyl-1,1-dioxo-3H-1,2-benzothiazol-6-yl]-1,3-dimethylpyridin-2-one]
4 | > 5000 | ≤ 500 | ≤ 500 | ≤ 500 | COc1nc2c(CS(C)(=O)=O)cc(-c3cc(C)c(=O)n(C)c3)cc2n1CC1CC1 [Example 99, 5-[3-(cyclopropylmethyl)-2-methoxy-7-(methylsulfonylmethyl)benzimidazol-5-yl]-1,3-dimethylpyridin-2-one]
5 | 500 to 5000 | ≤ 500 | ≤ 500 | ≤ 500 | Cc1cc(-c2cc(NS(C)(=O)=O)c3ncn(Cc4ccccc4)c3c2)cn(C)c1=O [Example 31, N-[1-benzyl-6-(1,5-dimethyl-6-oxopyridin-3-yl)benzimidazol-4-yl]methanesulfonamide]
6 | 500 to 5000 | ≤ 500 | ≤ 500 | ≤ 500 | Cn1cc(-c2cc(S(C)(=O)=O)cc3cc(C4CC4)oc23)c2ccccc2c1=O [Example 24, 4-(2-cyclopropyl-5-methylsulfonyl-1-benzofuran-7-yl)-2-methylisoquinolin-1-one]
7 | 500 to 5000 | ≤ 500 | ≤ 500 | ≤ 500 | Cc1cc(-c2cc(NS(C)(=O)=O)c3nc(C)n([C@@H](C)c4ccccc4)c3c2)cn(C)c1=O [Example 44, N-[6-(1,5-dimethyl-6-oxopyridin-3-yl)-2-methyl-1-[(1S)-(1-phenylethyl)]benzimidazol-4-yl]methanesulfonamide]
8 | > 5000 | ≤ 500 | ≤ 500 | ≤ 500 | CCCCn1c(C)nc2c(NS(C)(=O)=O)cc(-c3cc(OC)c(=O)n(C)c3)cc21 [Example 95, N-[1-butyl-6-(5-methoxy-1-methyl-6-oxopyridin-3-yl)-2-methylbenzimidazol-4-yl]methanesulfonamide hydrochloride]
9 | > 5000 | ≤ 500 | ≤ 500 | ≤ 500 | Cc1cc(-c2cc(NS(C)(=O)=O)c3nc(C)n(CC4CC4)c3c2)cn(C)c1=O [Example 39, N-[1-(cyclopropylmethyl)-6-(1,5-dimethyl-6-oxopyridin-3-yl)-2-methylbenzimidazol-4-yl]methanesulfonamide]
10 | 500 to 5000 | 500 to 5000 | ≤ 500 | 500 to 5000 | Cc1cc(-c2cc(NS(C)(=O)=O)cc3cc(-c4ccccc4)oc23)cn(C)c1=O [Example 83, N-[7-(1,5-dimethyl-6-oxopyridin-3-yl)-2-phenyl-1-benzofuran-5-yl]methane-sulfonamide]
11 | > 5000 | ≤ 500 | ≤ 500 | ≤ 500 | CCS(=O)(=O)Nc1cc(-c2cc(OC)c(=O)n(C)c2)c2oc(C3CCCC3)nc2c1 [Example 57, N-[2-cyclopentyl-7-(5-methoxy-1-methyl-6-oxopyridin-3-yl)-1,3-benzoxazol-5-yl]ethanesulfonamide]
